Results: patent publication US12661353B2, “SPT5 inhibitors and uses thereof” (Yeda Research and Development Co. Ltd., priority 2020, dated 2026)

Key:
[1] = biological target: T1, Rpb1 CC domain (His-Rpb1) (Homo sapiens, UniProt P24928); assay: Binding assay by intrinsic fluorescence of purified His-Rpb1; conditions: read-out: IC50, decrease of intrinsic fluorescence of Rpb1 (Pol II)
T1 construct: His tag; made in house; host or cells: E. coli; purified on nickel agarose beads
Procedure: (§1) Binding assay—In order to measure binding of the indicated compound to Spt5 and/or Pol II; Spt5-Spt4 or Rpb1 fused to a histidine (His) tag were expressed in E. coli (SEQ ID Nos: 2-3, 5-6 and 81) and purified on nickel agarose beads as described in Ashkenazi et al. 2016. The proteins were incubated for 10 minutes with increasing concentrations of the indicated compound in a black 384 wells microplate in a total volume of 20 μl. Binding was assessed by measuring the changes in the intrinsic fluorescence (280 nm) using Cytation™ 5 (BioTek).
(§2) Two identified compounds, SPI-21 and SPI-18, were further validated for their direct interaction with either Spt5 or Rpb1 CC domain. […] Using the purified proteins, fluorescence intensity measurements were performed in the presence of increasing concentrations of SPI-21 or SPI-18. This method analyzes binding by monitoring the changes in the intrinsic fluorescence of the proteins as a consequence of conformational changes. […]
(§3) Direct interaction with either the Spt5 or the Rpb1 CC domain of SPI-21 and SPI-18 was further validated. […] Using the purified proteins, fluorescence intensity measurements were performed in the presence of increasing concentrations of SPI-21 and SPI-18. This method analyzes binding by monitoring the changes in the intrinsic fluorescence of the proteins as a consequence of conformational changes. […]

His-Spt5 (fused to Spt4) = biological target: T2, His-Spt5 (fused to Spt4) (Homo sapiens, UniProt O00267); assay: Binding assay by intrinsic fluorescence of purified His-Spt5 (fused to Spt4)
T2 construct: His-Rpb1 and His-Spt5 (fused to Spt4 to increase its stability) were each expressed in E. coli; Spt4 (fusion partner); His tag (N); made in house; host or cells: E. coli; purified on nickel agarose beads
Procedure: as §1, §2, §3

wild type (Q7) Htt = assay: Newly synthesized Htt transcripts, 4sU metabolic labeling, Q7 cells; assay type: cell-based, mouse; conditions: 4sU for 2 hours
Procedure: Metabolic labeling of newly synthesized RNA with 4-thiouridine (4sU)—STHdh Q111 and STHdh Q7 cells (collected from 10 cm dishes) were treated for 30 minutes with DMSO (vehicle control) or the tested SPI compound (e.g., SPJ-21). Following, 4-thiouridine (4sU, 150 μM final concentration) was added for additional 2 hours. The labeling was terminated by removing the 4sU-containing medium and washing the cells 3 times with phosphate-buffered saline (PBS). Total RNA was extracted as described above. 10 μg of RNA were biotinylated using biotin-HPDP (1:5; A8008, APExBIO) for 1.5 hours at room temperature and the biotinylated RNA was purified using chloroform and isopropanol extraction and dissolved in DEPC water. Following, the biotinylated RNA was captured by incubation with Streptavidin-coated magnetic beads (NEB, S1420S) for 30 minutes at room temperature in constant rotation. Bound RNA was eluted with 100 μl of 0.1 M fresh DTT. […]
Huntington's disease (HD) is an inherited genetic disorder caused by expansion trinucleotide CAG repeats (36 and higher) encoding glutamine (Q) in the huntingtin (Htt) gene. […] The two cell lines were treated for 48 hours with the identified SPIs and following the levels of Htt mRNA were determined. […] Moreover, the levels measured from the second exon relative to the first were fairly higher in Q7 compared to Q111 and this small difference was kept all along the gene. […]

GDF15 = GDF15 mRNA levels, HeLa, qPCR; assay type: cell-based, human
Procedure: RNA analysis—Total RNA was extracted using Tri-reagent (Bio-Lab Chemicals) and Direct-Zol™ RNA MiniPrep kit (Zymo Research). Following, cDNA was synthesized from […] of total RNA using a High-Capacity cDNA Reverse Transcription Kit (ABI, Thermo Fisher Scientific). cDNA samples were analyzed by quantitative PCR (qPCR) in a ViiA 7 Real-Time PCR System using Fast qPCRBIO SYBR Green Mix (PCR Biosystems).
GDF15 is a member of the TGF-β superfamily and is associated with regulation of body-weight and food intake in humans and rodents (Emmerson et al., 2017; Hsu et al., 2017; Mullican et al., 2017; Tsai et al., 2018; Yang et al., 2017). […] To test this possibility, GDF15 expression was analyzed following 2 and 24 hours treatment with SPI-21. […] The dramatic elevation of GDF15 was also seen by other identified SPIs (FIG. 4G) and was not limited to HeLa cells but was also detected in other human and mouse cell lines (FIG. 4H). Thus, the utilization of SPIs enables distinguishing between temporary and constitutive Spt5-regulated genes and unveiled a previously unknown but significant role of Spt5 in the control of an important mammalian metabolic pathway via GDF15.

T1 sequence (P24928 8-370): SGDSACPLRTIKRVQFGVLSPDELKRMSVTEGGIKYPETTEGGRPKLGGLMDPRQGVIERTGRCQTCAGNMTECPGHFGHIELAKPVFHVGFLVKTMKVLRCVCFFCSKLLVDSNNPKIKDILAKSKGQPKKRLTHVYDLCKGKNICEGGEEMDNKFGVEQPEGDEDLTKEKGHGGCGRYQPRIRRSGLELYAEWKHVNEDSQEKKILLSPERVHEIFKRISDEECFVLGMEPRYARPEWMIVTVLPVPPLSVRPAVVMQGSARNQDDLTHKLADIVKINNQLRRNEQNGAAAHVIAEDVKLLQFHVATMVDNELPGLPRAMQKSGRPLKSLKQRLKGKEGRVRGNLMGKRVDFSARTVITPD

Question: With `Nc1ccccc1SC(CC(=O)c1cccs1)c1cccs1` (stereo not shown) [SPI-18] as the compound, how does the IC50 [1] read?
Answer: 76 µM

Question: And the IC50 (His-Spt5 (fused to Spt4))?
Answer: 40 µM

Question: For `COc1ccc(C=CC(=O)c2cc(O)ccc2O)cc1` [SPI-21], which IC50 [1] is on record?
Answer: 23 µM

Question: What about the “effect on intrinsic fluorescence of Spt5” value (His-Spt5 (fused to Spt4)) of the same compound?
Answer: no significant effect

Question: And the “levels of newly synthesized Q7 Htt” value (wild type (Q7) Htt)?
Answer: not Q7 Htt were diminished

Question: What about the GDF15 up-regulation (GDF15; 2 hours treatment) of the same compound?
Answer: moderately up-regulated

Question: What about the GDF15 up-regulation (GDF15; 24 hours treatment) of the same compound?
Answer: about 100 fold
